According to publication PMC12067350, “Discovery of Thieno[3,2‑b]pyridine-5-carboxamide and 2,3-Difluorobenzamide Negative Allosteric Modulators of Metabotropic Glutamate Receptor Subtype 5” (ACS Medicinal Chemistry Letters, 2025):

Experiments:
[1] = Intrinsic clearance in rat liver microsomes; assay type: in vitro ADME; conditions: for CLint scaled at 0.75 h, 1 µM: pH 7.4, rat liver microsomes; for rat CLhep: predicted hepatic clearance from in vitro rat microsomal data
Experimental: Intrinsic Clearance in Rat and Human Liver Microsomes
The in vitro intrinsic clearance (CL int) was investigated in commercially obtained hepatic microsomes from rat and human donors using the substrate depletion (i.e., loss-of-parent vs. time, or t 1/2 method) approach with analyte detection via liquid chromatography-tandem mass spectrometry (LC-MS/MS). For each species, mean %parent remaining values at each time point were calculated from replicates raw data (analyte:IS peak area ratios) and used to determine in vitro t 1/2 and CLint.
Experiments were carried out using a robot-assisted (TECAN model Evo 200). Compound was incubated (1 µM final concentration) in buffer (100 mM potassium phosphate pH 7.4 with 3 mM MgCl2) containing hepatic microsomes (0.5 mg/mL final concentration) from multiple species, discretely, at 37 °C under constant orbital shaking. After 5 minutes (pre-incubation), reactions were initiated by addition of nicotinamide adenine dinucleotide phosphate (NADPH, 1 mM final concentration). At selected time intervals (0, 3, 7, 15, 25, and 45 minutes) post-addition of NADPH, aliquots (50 µL) were taken and placed into a 96-shallow-well plate containing ice cold acetonitrile (150 µL) with carbamazepine (IS, 50 nM). The plates were then centrifuged (3000 rcf at 4 °C) for 10 minutes. The supernatants were transferred to a new 96-shallow-well daughter plate and diluted (1:1 v/v) with water (Milli-Q filtered). The plates were then sealed in preparation for LC-MS/MS analysis (see below).
Raw LC-MS/MS peak area data generated from the assay samples were used to construct natural log-transformed %parent remaining vs. time plots (using t = 0 minute post-NADPH addition sample data as starting point set to 100%). In vitro compound half-life (t 1/2) values were obtained using the following […]
k is the slope from linear regression analysis of the natural log-transformed data (using means from Where all replicates at each time point). Resulting t 1/2 values were then used to calculate hepatic CLint values according to the following equation and with the use of species-specific scale-up factors for liver weight (grams) per total body weight (kg):
CL = 0.693 x 1 mL incubation x 45 mg microsomes x a gram liver
int in vitro t1/2 0.5 mg microsomes 1 gram liver kg body wt aScale-up factors used are 45 (rat) and 20 (human).1
Predicted hepatic clearance (CLhep) was calculated using the following equation: […]
Qh represents hepatic blood flow (mL/min/kg): 21 for human, 70 for rat, and 90 for mouse.

[2] = target: T1, CYP2D6 (Homo sapiens, UniProt P10635); experiment: Cytochrome P450 inhibition using human liver microsomes, CYP2D6; assay type: in vitro ADME; conditions: read-out: CYP 450 IC50, 2D6
T1 construct: from tissue; host or cells: human liver microsomes
Experimental: Cytochrome P450 inhibition using Liver Microsomes.
The ability of compounds to inhibit cytochrome P450s (CYPs) was tested using human liver microsomes and a cocktail of substrates specific for CYP1A2, 2C9, 2D6 and 3A4. Compounds were incubated at 37C in presence of human liver microsomes (0.1 mg/ml) at 30, 10, 3, 1, 0.3 and 0.1 µM. A cocktail of substrate was also added for each CYP tested: phenacetin (10 µM, CYP1A2), diclofenac (5 µM, CYP2C9), dextromethorphan (5 µM, CYP2D6) and midazolam (2 µM, CYP3A4). HLM were also incubated with the control inhibitor miconazole at 3, 1, 0.3, 0.1, 0.03 and 0.01 µM. […]
The concentrations of CYP-specific metabolites generated at the end of the reaction were quantified by mass spectrometry using standard curves for each metabolite: acetaminophen (CYP1A2), 4-hydroxydiclofenac (CYP2C9), dextrophan (CYP2D6) and 1-hydroxymidazolam (CYP3A4). A concentration response curve for each metabolite was generated and IC50s were calculated using Prism. The LC-MS/MS transitions for metabolite quantifications are as follows. […]
Prepared samples were injected (10 µL each) onto an AB Sciex Triple Quad 4500 mass spectrometer system with an Agilent 1260 Infinity II pump and autosampler. […] Quantitation of compounds was performed via AB Sciex Multiquant software using the raw analyte:IS peak area ratios. […]

[3] = Rat IV/PO pharmacokinetics; assay type: in vivo, Sprague-Dawley rat; conditions: plasma, IV 1 mg/kg; for MRT / clearance / half-life / Vd: male Sprague-Dawley rats (n = 2); for clearance: read-out: CLp; for half-life: read-out: Elim. t 1/2 (converted); for Vd: read-out: V ss
Experimental: (1700 rcf, 5 minutes, 4 °C) to obtain plasma sample. […]
All brain and plasma samples were stored at -80 °C until analysis by LC-MS/MS.
Male Sprague-Dawley rats were used for discrete pharmacokinetic studies. Compounds in ethanol:
PEG400: saline (1:4:5 v/v/v) were administered intra-venously in two rats at 1 mg/kg (IV PK). Two rats were also gavaged at 10 mg/kg with compounds in 10% Tween 80 in water (PO PK). Blood samples were collected from all […] at […] different time points post-dose (0.25, 0.50, 1.0, 2.0, 4.0, 7.0 and 24 hr) and plasma was prepared as described above. The concentration of compounds in plasma was quantified by LC/MS/MS as described below.
The IV PK experiment was used to determine clearance, Volume of distribution and half-life. The PO experiments were used to determine exposure and oral bioavailability. PK parameters were calculated using Phoenix WinNonlin software (version 8.1).
Samples preparation for bioanalysis
Plasma samples from the in-life phase of the study were thawed at ambient temperature (benchtop), and then aliquots (20 µL per sample) were transferred to a 96-shallow-well (V-bottom) plate. Matrix-matched quality control (QC) samples and standard curves of VU6031545 and VU6024945 (1 mg/mL DMSO stock solution) were prepared in blank rat plasma (K2EDTA-treated) or blank brain homogenate via serial dilution and transferred (20 µL each) to the plate along with multiple blank plasma and brain homogenate samples. Acetonitrile (120 µL) containing IS (10 nM carbamazepine) was added to each well of the plate to precipitate protein. The plate was then centrifuged (4000 rcf, 5 minutes, ambient temperature), and resulting supernatants (60 µL each) were transferred to a new 96-shallow-well (V-bottom) plate containing an equal volume (60 µL per well) of water (Milli-Q purified). The plate was then sealed in preparation for LC-MS/MS analysis. […]

[4] = male Sprague-Dawley rats, PO 10 mg/kg, read-out: %F (oral bioavailability)

T1 sequence (P10635 whole entry): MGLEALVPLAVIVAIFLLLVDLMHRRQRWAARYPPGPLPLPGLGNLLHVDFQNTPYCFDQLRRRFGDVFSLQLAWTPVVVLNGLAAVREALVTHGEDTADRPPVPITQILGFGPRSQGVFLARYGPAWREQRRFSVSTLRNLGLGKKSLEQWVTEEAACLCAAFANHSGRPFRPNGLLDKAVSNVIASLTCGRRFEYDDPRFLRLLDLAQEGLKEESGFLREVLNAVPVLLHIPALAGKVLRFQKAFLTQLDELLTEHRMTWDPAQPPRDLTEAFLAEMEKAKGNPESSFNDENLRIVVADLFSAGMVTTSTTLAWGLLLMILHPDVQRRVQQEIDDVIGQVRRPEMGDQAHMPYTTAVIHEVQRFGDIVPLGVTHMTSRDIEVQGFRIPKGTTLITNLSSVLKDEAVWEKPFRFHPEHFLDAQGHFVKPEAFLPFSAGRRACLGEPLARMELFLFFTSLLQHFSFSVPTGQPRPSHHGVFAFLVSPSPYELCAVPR

Row | CLint scaled at 0.75 h, 1 µM [1] [mL/min/kg] | rat CLhep [1] [mL/min/kg] | IC50 [2] [µM] | MRT [3] [h] | clearance [3] [mL/min/kg] | half-life [3] [h] | Vd [3] [L/kg] | bioavailability [3, 4] [%] | bioavailability at 24 h [3, 4] [%] | Structure (SMILES)
1 | 143 | 47.0 | > 30 | 2.45 | 49.3 | 3.42 | 6.67 | > 100 | – | Cc1csc(NC(=O)c2cc(O[C@@H]3CCOC3)c3sccc3n2)n1 [19aA]
2 | 116 | 43.7 | > 30 | 1.44 | 31.3 | 1.78 | 2.89 | 17 | 16.6 | Cc1csc(NC(=O)c2cc(O[C@@H]3CCOC3)cc(F)c2F)n1 [27cA]
